These molecules were tested against T1, HMG-CoA reductase (Homo sapiens, UniProt P04035) (assay: HMG-CoA reductase (HMGCR) degradation in HepG2 cells by western blotting). Settings: treated for 18 hours, ratio of HMG-CoA reductase to GAPDH.
T1 construct: endogenous in cells; host or cells: HepG2 (Korea Cell Line Bank)
T1 sequence (P04035 1-888): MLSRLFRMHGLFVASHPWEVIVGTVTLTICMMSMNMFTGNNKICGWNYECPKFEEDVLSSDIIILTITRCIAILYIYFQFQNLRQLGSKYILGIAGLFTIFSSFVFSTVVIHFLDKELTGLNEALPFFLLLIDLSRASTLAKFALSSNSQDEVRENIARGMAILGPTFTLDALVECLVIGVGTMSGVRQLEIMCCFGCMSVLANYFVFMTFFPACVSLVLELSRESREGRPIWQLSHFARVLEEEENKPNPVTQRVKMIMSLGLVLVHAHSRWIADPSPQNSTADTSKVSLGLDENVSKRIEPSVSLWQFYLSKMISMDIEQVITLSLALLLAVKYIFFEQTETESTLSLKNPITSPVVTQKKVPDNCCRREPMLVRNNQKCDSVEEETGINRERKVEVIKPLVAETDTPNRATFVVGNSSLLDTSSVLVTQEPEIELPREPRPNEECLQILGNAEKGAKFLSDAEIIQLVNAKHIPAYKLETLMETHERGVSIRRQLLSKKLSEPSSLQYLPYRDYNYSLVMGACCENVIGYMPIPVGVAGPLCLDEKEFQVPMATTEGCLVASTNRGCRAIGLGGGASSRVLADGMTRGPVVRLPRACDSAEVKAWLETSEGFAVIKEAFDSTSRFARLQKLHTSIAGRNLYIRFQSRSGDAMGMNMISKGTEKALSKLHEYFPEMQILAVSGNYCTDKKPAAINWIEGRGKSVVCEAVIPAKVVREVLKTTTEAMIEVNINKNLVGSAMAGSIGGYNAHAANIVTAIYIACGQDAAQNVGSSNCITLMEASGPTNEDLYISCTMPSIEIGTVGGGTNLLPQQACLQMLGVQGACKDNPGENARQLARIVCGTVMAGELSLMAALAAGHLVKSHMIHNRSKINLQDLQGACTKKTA
Assay type: cell-based
Method in brief: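 Western blot read-out: HMGCR protein probed (1:500, 16 hours at 4° C) alongside GAPDH loading control on 15 μg BCA-normalised RIPA lysates. Lysates came from HepG2 cells (P105–P110) exposed for 18 hours to a 10-point, three-fold series starting at 3 μM.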

Row | SMILES | DC50 [nM]
1 | Cc1ncsc1-c1ccc(CNC(=O)[C@@H]2C[C@@H](O)CN2C(=O)[C@@H](NC(=O)C2(F)CC2)C(C)(C)C)c(OCCOCCOCCOCCNC(=O)O[C@H]2C[C@@H](C)C=C3C=C[C@H](C)[C@H](CC[C@@H]4C[C@@H](O[Si](C)(C)C(C)(C)C)CC(=O)O4)[C@H]32)c1 [Compound 29, (1S,3R,7S,8S,8aR)-8-(2-((2R,4R)-4-((tert-butyldimethylsilyl)oxy)-6-oxotetrahydro-2H-pyran-2-yl)ethyl)-3,7-dimethyl-1,2,3,7,8,8a-hexahydronaphthalen-1-yl (2-(2-(2-(2-(2-(((2S,4R)-1-((S)-2-(1-fluorocyclopropane-1-carboxamido)-3,3-dimethylbutanoyl)-4-hydroxypyrrolidine-2-carboxamido)methyl)-5-(4-methylthiazol-5-yl)phenoxy)ethoxy)ethoxy)ethoxy)ethyl)carbamate] | 50 to 500

Same assay, conditions: treated for 18 hours, ratio of HMG-CoA reductase to GAPDH, read-out: DC50

Row | SMILES | DC50 [nM]
2 | C[C@H]1C=C2C=C[C@H](C)[C@H](CC[C@@H]3C[C@@H](O[Si](C)(C)C(C)(C)C)CC(=O)O3)[C@H]2[C@@H](OC(=O)NCCOCCOCCOCCNc2cccc3c2C(=O)N(C2CCC(=O)NC2=O)C3=O)C1 (stereo partly drawn) [Compound 47, (1S,3R,7S,8S,8aR)-8-(2-((2R,4R)-4-((tert-butyldimethylsilyl)oxy)-6-oxotetrahydro-2H-pyran-2-yl)ethyl)-3,7-dimethyl-1,2,3,7,8,8a-hexahydronaphthalen-1-yl (2-(2-(2-(2-((2-(2,6-dioxopiperidin-3-yl)-1,3-dioxoisoindolin-4-yl)amino)ethoxy)ethoxy)ethoxy)ethyl)carbamate] | < 50
3 | C[C@H]1C=C2C=C[C@H](C)[C@H](CC[C@@H]3C[C@@H](O[Si](C)(C)C(C)(C)C)CC(=O)O3)[C@H]2[C@@H](OC(=O)NCCCCCNC(=O)COc2cccc3c2C(=O)N(C2CCC(=O)NC2=O)C3=O)C1 (stereo partly drawn) [Compound 74, (1S,3R,7S,8S,8aR)-8-(2-((2R,4R)-4-((tert-butyldimethylsilyl)oxy)-6-oxotetrahydro-2H-pyran-2-yl)ethyl)-3,7-dimethyl-1,2,3,7,8,8a-hexahydronaphthalen-1-yl (5-(2-((2-(2,6-dioxopiperidin-3-yl)-1,3-dioxoisoindolin-4-yl)oxy)acetamido)pentyl)carbamate] | < 50
4 | C[C@H]1C=C2C=C[C@H](C)[C@H](CC[C@@H]3C[C@@H](O)CC(=O)O3)[C@H]2[C@@H](OC(=O)NCCCOCCCCNc2cccc3c2C(=O)N(C2CCC(=O)NC2=O)C3=O)C1 (stereo partly drawn) [Compound 121, (1S,3R,7S,8S,8aR)-8-(2-((2R,4R)-4-hydroxy-6-oxotetrahydro-2H-pyran-2-yl)ethyl)-3,7-dimethyl-1,2,3,7,8,8a-hexahydronaphthalen-1-yl (3-(4-((2-(2,6-dioxopiperidin-3-yl)-1,3-dioxoisoindolin-4-yl)amino)butoxy)propyl)carbamate] | < 50
5 | C[C@H]1C=C2C=C[C@H](C)[C@H](CC[C@@H]3C[C@@H](O[Si](C)(C)C(C)(C)C)CC(=O)O3)[C@H]2[C@@H](OC(=O)NCCC(=O)NCCOCCNc2cccc3c2C(=O)N(C2CCC(=O)NC2=O)C3=O)C1 (stereo partly drawn) [Compound 100, (1S,3R,7S,8S,8aR)-8-(2-((2R,4R)-4-((tert-butyldimethylsilyl)oxy)-6-oxotetrahydro-2H-pyran-2-yl)ethyl)-3,7-dimethyl-1,2,3,7,8,8a-hexahydronaphthalen-1-yl (3-((2-(2-((2-(2,6-dioxopiperidin-3-yl)-1,3-dioxoisoindolin-4-yl)amino)ethoxy)ethyl)amino)-3-oxopropyl)carbamate] | < 50
6 | C[C@H]1C=C2C=C[C@H](C)[C@H](CC[C@@H]3C[C@@H](O[Si](C)(C)C(C)(C)C)CC(=O)O3)[C@H]2[C@@H](OC(=O)NCCOCCOCCOCCOCCOCCNc2cccc3c2C(=O)N(C2CCC(=O)NC2=O)C3=O)C1 (stereo partly drawn) [Compound 49, (1S,3R,7S,8S,8aR)-8-(2-((2R,4R)-4-((tert-butyldimethylsilyl)oxy)-6-oxotetrahydro-2H-pyran-2-yl)ethyl)-3,7-dimethyl-1,2,3,7,8,8a-hexahydronaphthalen-1-yl (17-((2-(2,6-dioxopiperidin-3-yl)-1,3-dioxoisoindolin-4-yl)amino)-3,6,9,12,15-pentaoxaheptadecyl)carbamate] | < 50

Continued, values first:

Row | DC50 [nM] | SMILES
7 | < 50 | C[C@H]1C=C2C=C[C@H](C)[C@H](CC[C@@H]3C[C@@H](O[Si](C)(C)C(C)(C)C)CC(=O)O3)[C@H]2[C@@H](OC(=O)NCCOCCNC(=O)COc2cccc3c2C(=O)N(C2CCC(=O)NC2=O)C3=O)C1 (stereo partly drawn) [Compound 128, (1S,3R,7S,8S,8aR)-8-(2-((2R,4R)-4-((tert-butyldimethylsilyl)oxy)-6-oxotetrahydro-2H-pyran-2-yl)ethyl)-3,7-dimethyl-1,2,3,7,8,8a-hexahydronaphthalen-1-yl (2-(2-(2-((2-(2,6-dioxopiperidin-3-yl)-1,3-dioxoisoindolin-4-yl)oxy)acetamido)ethoxy)ethyl)carbamate]
8 | < 50 | C[C@H]1C=C2C=C[C@H](C)[C@H](CC[C@@H]3C[C@@H](O[Si](C)(C)C(C)(C)C)CC(=O)O3)[C@H]2[C@@H](OC(=O)NCCCCCN2CCC(Nc3cccc4c3C(=O)N(C3CCC(=O)NC3=O)C4=O)CC2)C1 (stereo partly drawn) [Compound 124, (1S,3R,7S,8S,8aR)-8-(2-((2R,4R)-4-((tert-butyldimethylsilyl)oxy)-6-oxotetrahydro-2H-pyran-2-yl)ethyl)-3,7-dimethyl-1,2,3,7,8,8a-hexahydronaphthalen-1-yl (5-(4-((2-(2,6-dioxopiperidin-3-yl)-1,3-dioxoisoindolin-4-yl)amino)piperidin-1-yl)pentyl)carbamate]
9 | < 50 | C[C@H]1C=C2C=C[C@H](C)[C@H](CC[C@@H]3C[C@@H](O[Si](C)(C)C(C)(C)C)CC(=O)O3)[C@H]2[C@@H](OC(=O)NCCc2ccc(CC(=O)Nc3cccc4c3C(=O)N(C3CCC(=O)NC3=O)C4=O)cc2)C1 (stereo partly drawn) [Compound 146, (1S,3R,7S,8S,8aR)-8-(2-((2R,4R)-4-((tert-butyldimethylsilyl)oxy)-6-oxotetrahydro-2H-pyran-2-yl)ethyl)-3,7-dimethyl-1,2,3,7,8,8a-hexahydronaphthalen-1-yl (4-(2-((2-(2,6-dioxopiperidin-3-yl)-1,3-dioxoisoindolin-4-yl)amino)-2-oxoethyl)phenethyl)carbamate]
10 | < 50 | C[C@H]1C=C2C=C[C@H](C)[C@H](CC[C@@H]3C[C@@H](O)CC(=O)O3)[C@H]2[C@@H](OC(=O)NCCOCCNc2cccc3c2C(=O)N(C2CCC(=O)NC2=O)C3=O)C1 (stereo partly drawn) [Compound 87, (1S,3R,7S,8S,8aR)-8-(2-((2R,4R)-4-hydroxy-6-oxotetrahydro-2H-pyran-2-yl)ethyl)-3,7-dimethyl-1,2,3,7,8,8a-hexahydronaphthalen-1-yl (2-(2-((2-(2,6-dioxopiperidin-3-yl)-1,3-dioxoisoindolin-4-yl)amino)ethoxy)ethyl)carbamate]
11 | > 500 | Cc1ncsc1-c1ccc(CNC(=O)[C@@H]2C[C@@H](O)CN2C(=O)[C@@H](NC(=O)CCCCCCCCCCNC(=O)O[C@H]2C[C@@H](C)C=C3C=C[C@H](C)[C@H](CC[C@@H](O)C[C@@H](O)CC(=O)O)[C@H]32)C(C)(C)C)cc1 [Compound 154, (3R,5R)-3,5-dihydroxy-7-((1S,2S,6R,8S,8aR)-8-(((11-(((S)-1-((2S,4R)-4-hydroxy-2-((4-(4-methylthiazol-5-yl)benzyl)carbamoyl)pyrrolidin-1-yl)-3,3-dimethyl-1-oxobutan-2-yl)amino)-11-oxoundecyl)carbamoyl)oxy)-2,6-dimethyl-1,2,6,7,8,8a-hexahydronaphthalen-1-yl)heptanoic acid]
12 | < 50 | Cc1ncsc1-c1ccc(CNC(=O)[C@@H]2C[C@@H](O)CN2C(=O)[C@@H](NC(=O)CCCCCCCNC(=O)O[C@H]2C[C@@H](C)C=C3C=C[C@H](C)[C@H](CC[C@@H]4C[C@@H](O)CC(=O)O4)[C@H]32)C(C)(C)C)cc1 [Compound 158, (1S,3R,7S,8S,8aR)-8-(2-((2R,4R)-4-hydroxy-6-oxotetrahydro-2H-pyran-2-yl)ethyl)-3,7-dimethyl-1,2,3,7,8,8a-hexahydronaphthalen-1-yl (8-(((S)-1-((2S,4R)-4-hydroxy-2-((4-(4-methylthiazol-5-yl)benzyl)carbamoyl)pyrrolidin-1-yl)-3,3-dimethyl-1-oxobutan-2-yl)amino)-8-oxooctyl)carbamate]

— patent US12479840B2, “HMG-CoA reductase degradation inducing compound” (Uppthera, priority 2020, dated 2025)
